Reference: patent US20240300949A1, “NOVEL CRYSTALLINE FORM OF 1-(8-BROMOPYRIDO[2,3-E][1,2,4]TRIAZOLO[4,3-A]PYRAZIN-4-YL)-N-METHYLAZETIDIN-3-AMINE HEMISUCCINATE” (JW PHARMACEUTICAL CORPORATION, priority 2021, published 2024)

Key:
[1] = solid-state stability on drying in vacuum oven at 60° C. (XRPD, FIG. 8); assay type: physicochemical
Description: Form F is a channel hydrate and generally channel hydrates/solvates are not very stable since the solvent molecules easily can move in and out of the channels and causes collapse of the crystal lattice. In the case of form F the water molecules are placed in the same molecular plane as the succinate molecules which stabilize the hydrate and makes form F particularly useful for use in a solid pharmaceutical product, such as in a tablet. Furthermore, form F can be dried under moderate drying conditions such as in a vacuum oven at 60° C. […] Also form F has been found suitable for large scale drying.
FIG. 8: XRPD's of Form F stored in vacuum at 60° for different periods of time. At each time point of a quick XRPD (9 min) and a normal XRPD (1 hour) were recorded
XRPD patterns were collected with a PANalytical X'pert Empyrean diffractometer using an incident Cu Kα radiation and operating at 45 kV and 40 mA. The XRPD patterns were collected in the 2 theta range from 3 to 60 degrees with a step size of 0.013°, counting time of 198.645s and in transmission geometry. 25 repetitions were done and summarized. In the incident beam path, an parabolic shaped beam Cu W/Si (hybrid MPD) monochromator together with a 10 mm fixed mask, fixed anti-scatter slit ⅛° and fixed divergence slits of 1/16° were placed to line focus the Cu Kα X-rays through the sample and onto the detector. […]

[2] = solid-state stability on micronization; assay type: physicochemical
histamine 4 receptor = histamine 4 receptor (Homo sapiens, UniProt Q9H3N8); conditions: background statement, refers to U.S. Pat. No. 9,586,959; cited from earlier work
[3] = tested on: inflammatory cells such as mast cells and eosinophils; conditions: background statement, refers to U.S. Pat. No. 9,586,959; cited from earlier work

histamine 4 receptor, sequence (Q9H3N8 whole entry): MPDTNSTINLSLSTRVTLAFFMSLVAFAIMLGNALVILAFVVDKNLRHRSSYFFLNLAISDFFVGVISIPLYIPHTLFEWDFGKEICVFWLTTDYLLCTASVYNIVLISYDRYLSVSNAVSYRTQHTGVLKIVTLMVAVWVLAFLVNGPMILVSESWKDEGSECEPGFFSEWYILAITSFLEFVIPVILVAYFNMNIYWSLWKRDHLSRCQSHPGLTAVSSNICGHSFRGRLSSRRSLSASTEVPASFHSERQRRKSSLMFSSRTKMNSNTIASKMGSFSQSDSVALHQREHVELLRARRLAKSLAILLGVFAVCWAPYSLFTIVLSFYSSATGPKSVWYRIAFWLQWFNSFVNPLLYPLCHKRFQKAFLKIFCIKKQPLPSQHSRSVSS

| Compound | crystal lattice stability on drying [1] | stability of crystalline form on micronization [2] | histamine 4 receptor inhibitory effect (histamine 4 receptor) | effect against histamine induced infiltration of inflammatory cells such as mast cells and eosinophils [3] |
| --- | --- | --- | --- | --- |
| 1-(8-bromopyrido[2,3-e][1,2,4]triazolo[4,3-a]pyrazin-4-yl)-N-methylazetidin-3-amine hemisuccinate monohydrate [form F] | without collapsing the crystal lattice | tolerates micronization without undergoing amorphization |  |  |
| CNC1CN(c2nc3ncc(Br)cc3n3cnnc23)C1 [1-(8-bromopyrido[2,3-e][1,2,4]triazolo[4,3-a]pyrazin-4-yl)-N-methylazetidin-3-amine] |  |  | strong | suppressive effects |
